# Values quoted from earlier work in US7541359B2, “N-heteroarylpiperazinyl ureas as modulators of fatty acid amide hydrolase” (Janssen Pharmaceutica N.V., priority 2005, dated 2009).
# Tests used:
# rats [1] = conditions: cited from earlier work
# rats [2] = conditions: rat; cited from earlier work
# rats [3] = conditions: cited from earlier work; remark: listed apart in the source
# rats [4] = conditions: cited from earlier work; remark: listed apart in the source
# rats [5] = conditions: cited from earlier work; remark: listed apart in the source
# CREAE mice = conditions: model of multiple sclerosis; cited from earlier work
# rats [6] = conditions: cited from earlier work; remark: listed apart in the source
# FAAH = target: T1, FAAH (Homo sapiens, UniProt O00519); design: T84 frozen pellets (contents of 1-4×15 cm culture dishes) were homogenized in 300 mL of FAAH assay buffer; endogenous in cells; host or cells: T84 cells (homogenate); conditions: cited from earlier work
# T1 sequence (O00519 1-579): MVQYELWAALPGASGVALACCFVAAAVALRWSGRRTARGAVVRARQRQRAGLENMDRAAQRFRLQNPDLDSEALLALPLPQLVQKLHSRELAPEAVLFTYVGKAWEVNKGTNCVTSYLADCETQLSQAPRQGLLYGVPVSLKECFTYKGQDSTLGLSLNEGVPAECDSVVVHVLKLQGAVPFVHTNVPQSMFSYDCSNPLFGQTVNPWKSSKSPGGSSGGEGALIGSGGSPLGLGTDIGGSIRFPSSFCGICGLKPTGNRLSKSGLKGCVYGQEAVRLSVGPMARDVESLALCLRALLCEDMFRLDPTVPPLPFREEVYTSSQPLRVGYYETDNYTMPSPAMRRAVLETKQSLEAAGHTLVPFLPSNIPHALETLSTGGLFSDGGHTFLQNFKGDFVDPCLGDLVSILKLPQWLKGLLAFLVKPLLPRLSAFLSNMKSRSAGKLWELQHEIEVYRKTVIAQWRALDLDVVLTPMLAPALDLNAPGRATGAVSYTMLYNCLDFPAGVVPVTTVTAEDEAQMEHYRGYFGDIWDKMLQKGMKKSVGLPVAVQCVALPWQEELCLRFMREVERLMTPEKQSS
smiles,measurement,setting,value
NC(=O)c1cccc(-c2cccc(OC(=O)NC3CCCCC3)c2)c1 [URB-597],efficacy in the zero plus maze model of anxiety,rats [1],efficacy
same,analgesic efficacy in the formalin test,rats [2],analgesic efficacy
same,analgesic efficacy/activity in the hot plate test,rats [3],analgesic efficacy
Cc1nc(-c2ccccc2)c(-c2ccccc2)n1CCCCCCNC(=O)Oc1ccccc1F [BMS-1],analgesic effect in the Chung spinal nerve ligation model of neuropathic pain,rats [4],analgesic effect
same,analgesic effect in the Hargraves test of acute thermal nociception,rats [5],analgesic effect
CCCCCCCCCCCCCCCCS(=O)(=O)F [AM374],reduction of spasticity,CREAE mice,significantly reduce spasticity
O=C(CCCCCCc1ccccc1)c1ncc(-c2ccccn2)o1 [OL-135],analgesic activity in the tail emersion test of thermal nociception,rats [6],analgesic activity
same,analgesic efficacy/activity in the hot plate test,rats [3],analgesic activity
same,inhibition of FAAH,FAAH,potent inhibitor
